Assay results from EP0426029A1, “Injectable formulation for lipophilic drugs” (ABBOTT LABORATORIES, priority 1989, dated 1991).

System: mice
Test: Mouse scratch test (irritation/pain at the injection site)
Type: in vivo
Procedure: A scratch test was conducted in mice to measure the response to the sensation of irritation, i.e., the pain associated with an injection. Formulations were administered subcutaneously at a dose of 5 ml/kg to groups of mice (10/group) weighing 20 to 40 g each. The number of times that each mouse scratched the injection site was then counted for exactly five minutes.

CC[C@H]1OC(=O)[C@H](C)[C@@H](O[C@H]2C[C@@](C)(OC)[C@@H](O)[C@H](C)O2)[C@H](C)[C@@H](O[C@@H]2O[C@H](C)C[C@H](N(C)C)[C@H]2O)[C@](C)(OC)C[C@@H](C)C(=O)[C@H](C)[C@@H](O)[C@]1(C)O [Clarithromycin Lactobionate, Clarithromycin lactobionate]
No. of Scratches (Table I, subcutaneous, 5 ml/kg, mice (10/group), scratches of injection site counted for five minutes, 5 mg/ml in clarithromycin): 22.0 ± 7.2
NO. OF SCRATCHES (Table II, mouse scratch test, all solutions 5 mg/ml clarithromycin, pH as shown in formulation): 15.1 ± 4.4
